Measurements as given in patent US12570613B2, “Imidazoquinoline or benzoindazolone compound and intermediate for preparing same” (LMITO THERAPEUTICS INC., priority 2020, dated 2026).

target: NQO1 protein (Homo sapiens, UniProt P15559); assay: In vitro NQO1 enzyme activity assay (cytochrome C reduction, absorbance at 550 nm); type: biochemical; details: NQO1 2 ng, 10 nM Compound (Table 1)
Method: In order to evaluate the activity of the synthesized compound in NQO1, the experiments were performed as follows:
The synthesized compound was dissolved in DMSO to make a 10 mM stock solution, which was further diluted with DMSO to 250 μM so as to prepare a working solution. For experimental groups, the working solution of the compound was added to an enzyme reaction solution in which 50 μL of 1.54 mM Cytochrome C solution was added to 900 μL of 50 mM Tris-HCl (pH7.5) containing 0.14% BSA. For negative control groups, DMSO not containing the compound of the invention was added to the enzyme reaction solution as above. For each experimental and control group, 20 μL of 100 ng/mL NQO1 protein was added, and then 10 μL of 20 mM NADH was added to bring up the total volume to 1 mL. The change of absorbance was measured at 550 nm for 10 minutes using 1 mL cuvette. The kinetics of reaction was measured by the increase of absorbance as the cytochrome C was reduced at 550 nm over 10 minutes. The activity of NQO1 was measured by the amount of cytochrome C that is being reduced (nmol cytochrome C that was reduced/min/ug NQO1 protein). • Absorption coefficient of Cytochrome C: 21.1 (μmol/mL)^−1cm^−1 • BSA: Bovine Serum Albumin • […]: Tris(hydroxymethyl)aminomethane hydrochloride (buffer solution) • Equipment=Cary 100 UV-Vis Spectrophotometer • The results are shown in Tables 1 to 8.

Sequence of NQO1 protein (P15559 whole entry, species assumed): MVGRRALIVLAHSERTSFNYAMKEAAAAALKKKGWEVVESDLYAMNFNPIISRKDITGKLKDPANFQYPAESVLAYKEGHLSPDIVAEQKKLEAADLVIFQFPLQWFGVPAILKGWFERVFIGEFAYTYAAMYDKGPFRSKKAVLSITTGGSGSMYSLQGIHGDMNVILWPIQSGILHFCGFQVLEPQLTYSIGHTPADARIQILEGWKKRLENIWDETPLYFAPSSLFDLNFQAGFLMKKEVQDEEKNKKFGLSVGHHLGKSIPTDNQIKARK

Row | Structure (SMILES) | NQO1 activity assay Cytochrome C reduced/min/μg NQO1 protein
1 | CN(C)C(=O)c1nc2n(c1-c1ccccc1)-c1ccccc1C(=O)C2=O [Compound 7, N,N-dimethyl-4,5-dioxo-1-phenyl-4,5-dihydroimidazo[1,2-a]quinolin-2-carboxamide] | 96 nmol cytochrome C that was reduced/min/ug NQO1 protein
2 | O=C1C(=O)c2c(-c3ccccc3)nn(-c3ccccc3)c2-c2ccccc21 [Compound 13, 1,3-Diphenyl-1H-benzo[g]indazol-4,5-dione] | 198 nmol cytochrome C that was reduced/min/ug NQO1 protein
3 | Cc1nn(C)c2c1C(=O)C(=O)c1ccccc1-2 [Compound 22, 1,3-Dimethyl-1H-benzo[g]indazol-4,5-dione] | 481 nmol cytochrome C that was reduced/min/ug NQO1 protein
4 | O=C1C(=O)c2c(-c3ccc(F)cc3)nn(-c3ccccc3)c2-c2ccccc21 [Compound 14, 3-(4-Fluorophenyl)-1-phenyl-1H-benzo[g]indazol-4,5-dione] | 156 nmol cytochrome C that was reduced/min/ug NQO1 protein
5 | Cc1nn(-c2ccccn2)c2c1C(=O)C(=O)c1ccccc1-2 [Compound 30, 3-Methyl-1-(pyridin-2-yl)-1H-benzo[g]indazol-4,5-dione] | 494 nmol cytochrome C that was reduced/min/ug NQO1 protein
6 | Cc1c2c(nn1C(C)C)-c1ccccc1C(=O)C2=O [Compound 21, 2-Isopropyl-3-methyl-2H-benzo[g]indazol-4,5-dione] | 925 nmol cytochrome C that was reduced/min/ug NQO1 protein
7 | O=C1C(=O)c2c(Cn3ccnc3)nn(-c3ccccc3)c2-c2ccccc21 [Compound 24, 3-((1H-Imidazol-1-yl)methyl)-1-phenyl-1H-benzo[g]indazol-4,5-dione] | 596 nmol cytochrome C that was reduced/min/ug NQO1 protein
8 | CC(C)c1nn(-c2ccccc2)c2c1C(=O)C(=O)c1ccccc1-2 [Compound 10, 3-Isopropyl-1-phenyl-1H-benzo[g]indazol-4,5-dione] | 138 nmol cytochrome C that was reduced/min/ug NQO1 protein
9 | O=C1C(=O)c2c(-c3ccc(F)c(F)c3)nn(-c3ccccc3)c2-c2ccccc21 [Compound 15, 3-(3,4-Difluorophenyl)-1-phenyl-1H-benzo[g]indazol-4,5-dione] | 190 nmol cytochrome C that was reduced/min/ug NQO1 protein
10 | Cc1nn(C(C)C)c2c1C(=O)C(=O)c1ccccc1-2 [Compound 20, 1-Isopropyl-3-methyl-1H-benzo[g]indazol-4,5-dione] | 918 nmol cytochrome C that was reduced/min/ug NQO1 protein
11 | CCCCCCCc1nn(-c2ccccc2)c2c1C(=O)C(=O)c1ccccc1-2 [Compound 11, 3-Heptyl-1-phenyl-1H-benzo[g]indazol-4,5-dione] | 203 nmol cytochrome C that was reduced/min/ug NQO1 protein
12 | COCc1nn(-c2ccccc2)c2c1C(=O)C(=O)c1ccccc1-2 [Compound 18, 3-(Methoxymethyl)-1-phenyl-1H-benzo[g]indazol-4,5-dione] | 189 nmol cytochrome C that was reduced/min/ug NQO1 protein
13 | Cc1nn(-c2ccc(Cl)cc2)c2c1C(=O)C(=O)c1ccccc1-2 [Compound 26, 1-(4-Chlorophenyl)-3-methyl-1H-benzo[g]indazol-4,5-dione] | 465 nmol cytochrome C that was reduced/min/ug NQO1 protein
14 | CC(C)OCc1nn(-c2ccccc2)c2c1C(=O)C(=O)c1ccccc1-2 [Compound 19, 3-(Isopropoxymethyl)-1-phenyl-1H-benzo[g]indazol-4,5-dione] | 106 nmol cytochrome C that was reduced/min/ug NQO1 protein
15 | CNC(=O)c1nc2n(c1-c1ccccc1)-c1ccccc1C(=O)C2=O [Compound 8, N-methyl-4,5-dioxo-1-phenyl-4,5-dihydroimidazo[1,2-a]quinolin-2-carboxamide] | 112 nmol cytochrome C that was reduced/min/ug NQO1 protein
16 | Cc1nn(-c2ccc(F)cc2F)c2c1C(=O)C(=O)c1ccccc1-2 [Compound 32, 1-(2,4-Difluorophenyl)-3-methyl-1H-benzo[g]indazol-4,5-dione] | 839 nmol cytochrome C that was reduced/min/ug NQO1 protein

same assay, conditions: NQO1 2 ng, 50 nM Compound (Table 2)

Row | Structure (SMILES) | NQO1 activity assay Cytochrome C reduced/min/μg NQO1 protein
17 | Cc1n[nH]c2c1C(=O)C(=O)c1ccccc1-2 [Compound 43, 3-Methyl-1H-benzo[g]indazol-4,5-dione] | 1008 nmol cytochrome C that was reduced/min/ug NQO1 protein
18 | Cc1nn(CCc2ccccc2)c2c1C(=O)C(=O)c1ccccc1-2 [Compound 64, 3-Methyl-1-phenethyl-1H-benzo[g]indazol-4,5-dione] | 2081 nmol cytochrome C that was reduced/min/ug NQO1 protein

same assay, conditions: NQO1 2 ng, 50 nM Compound (Table 3)

Row | Structure (SMILES) | NQO1 activity assay Cytochrome C reduced/min/μg NQO1 protein
19 | Cc1nn(-c2ccncc2)c2c1C(=O)C(=O)c1ccccc1-2 [Compound 41, 3-Methyl-1-(pyridin-4-yl)-1H-benzo[g]indazol-4,5-dione] | 1617 nmol cytochrome C that was reduced/min/ug NQO1 protein
20 | Cc1nn(-c2nccs2)c2c1C(=O)C(=O)c1ccccc1-2 [Compound 40, 3-Methyl-1-(thiazol-2-yl)-1H-benzo[g]indazol-4,5-dione] | 2041 nmol cytochrome C that was reduced/min/ug NQO1 protein

same assay, conditions: NQO1 2 ng, 50 nM Compound (Table 4)

Row | Structure (SMILES) | NQO1 activity assay Cytochrome C reduced/min/μg NQO1 protein
21 | Cc1nn(CCc2ccc(F)cc2)c2c1C(=O)C(=O)c1ccccc1-2 [Compound 65, 1-(4-Fluorophenethyl)-3-methyl-1H-benzo[g]indazol-4,5-dione] | 3714 nmol cytochrome C that was reduced/min/ug NQO1 protein
22 | Cc1c2c(nn1CCc1ccc(F)cc1)-c1ccccc1C(=O)C2=O [Compound 66, 2-(4-Fluorophenethyl)-3-methyl-2H-benzo[g]indazol-4,5-dione] | 3001 nmol cytochrome C that was reduced/min/ug NQO1 protein
23 | Cc1nn(-c2cccc3ccccc23)c2c1C(=O)C(=O)c1ccccc1-2 [Compound 38, 3-Methyl-1-(naphthalen-1-yl)-1H-benzo[g]indazol-4,5-dione] | 2696 nmol cytochrome C that was reduced/min/ug NQO1 protein

same assay, conditions: NQO1 2 ng, 50 nM Compound (Table 6)

Row | Structure (SMILES) | NQO1 activity assay Cytochrome C reduced/min/μg NQO1 protein
24 | Cc1ccc(S(=O)(=O)n2nc3c(c2C)C(=O)C(=O)c2ccccc2-3)cc1 [Compound 50, 3-Methyl-2-tosyl-2H-benzo[g]indazol-4,5-dione] | 1542 nmol cytochrome C that was reduced/min/ug NQO1 protein
25 | COc1ccc(S(=O)(=O)n2nc3c(c2C)C(=O)C(=O)c2ccccc2-3)cc1 [Compound 51, 2-(4-Methoxyphenylsulfonyl)-3-methyl-2H-benzo[g]indazol-4,5-dione] | 1288 nmol cytochrome C that was reduced/min/ug NQO1 protein

same assay, conditions: NQO1 2 ng, 50 nM Compound (Table 7)

Row | Structure (SMILES) | NQO1 activity assay Cytochrome C reduced/min/μg NQO1 protein
26 | Cc1c2c(nn1S(=O)(=O)c1ccc([N+](=O)[O-])cc1)-c1ccccc1C(=O)C2=O [Compound 56, 3-Methyl-2-(4-nitrophenylsulfonyl)-2H-benzo[g]indazol-4,5-dione] | 1839 nmol cytochrome C that was reduced/min/ug NQO1 protein
27 | Cc1c2c(nn1S(=O)(=O)c1ccc(C(F)(F)F)cc1)-c1ccccc1C(=O)C2=O [Compound 57, 3-Methyl-2-(4-(trifluoromethyl)phenylsulfonyl)-2H-benzo[g]indazol-4,5-dione] | 1868 nmol cytochrome C that was reduced/min/ug NQO1 protein
28 | Cc1c2c(nn1S(=O)(=O)c1ccc(C#N)cc1)-c1ccccc1C(=O)C2=O [Compound 55, 4-(3-Methyl-4,5-dioxo-4,5-dihydro-2H-benzo[g]indazol-2-ylsulfonyl)benzonitrile] | 1892 nmol cytochrome C that was reduced/min/ug NQO1 protein
29 | Cc1c2c(nn1S(=O)(=O)C1CC1)-c1ccccc1C(=O)C2=O [Compound 53, 2-(Cyclopropylsulfonyl)-3-methyl-2H-benzo[g]indazol-4,5-dione] | 1549 nmol cytochrome C that was reduced/min/ug NQO1 protein

same assay, conditions: NQO1 2 ng, 50 nM Compound (Table 8)

Row | Structure (SMILES) | NQO1 activity assay Cytochrome C reduced/min/μg NQO1 protein
30 | Cc1c2c(nn1S(=O)(=O)c1nccn1C)-c1ccccc1C(=O)C2=O [Compound 61, 3-Methyl-2-(1-methyl-1H-imidazol-2-ylsulfonyl)-2H-benzo[g]indazol-4,5-dione] | 2289 nmol cytochrome C that was reduced/min/ug NQO1 protein
31 | Cc1c2c(nn1S(=O)(=O)N1CCOCC1)-c1ccccc1C(=O)C2=O [Compound 62, 3-Methyl-2-(morpholinosulfonyl)-2H-benzo[g]indazol-4,5-dione] | 1916 nmol cytochrome C that was reduced/min/ug NQO1 protein
32 | Cc1nn(CCCc2ccccc2)c2c1C(=O)C(=O)c1ccccc1-2 [Compound 67, 3-Methyl-1-(3-phenylpropyl)-1H-benzo[g]indazol-4,5-dione] | 1836 nmol cytochrome C that was reduced/min/ug NQO1 protein
33 | Cc1c2c(nn1CCc1ccccc1F)-c1ccccc1C(=O)C2=O [Compound 70, 2-(2-Fluorophenethyl)-3-methyl-2H-benzo[g]indazol-4,5-dione] | 1611 nmol cytochrome C that was reduced/min/ug NQO1 protein
